A word on the melting point: it is the temperature, or range, at which the solid turns liquid. For the molecule `CN1C(=O)CN(CC(=O)NCCC(=O)O)C(=O)c2cc(NC(=N)N)ccc21.Cl`, the melting point was 126 °C. The value for `CN1C(=O)CN(CC(=O)NCCC(=O)O)C(=O)c2cc(NC(=O)NCc3ccccc3)ccc21` [Example 3, 3-[2-[7-(3-benzyl-ureido)-1-methyl-2,5-dioxo-1,2,3,5-tetrahydro-benzo[e][1,4]diazepin-4-yl]-acetylamino]-propionic acid] was 116 °C (dec.); that for `O=C(O)C[C@@H](NC(=O)CN1C[C@H](c2ccccc2)Oc2ccc(NC(=O)NCc3ccccc3)cc2C1=O)c1ccccc1` [Example 21, (R,S)-3-{2-[7-(3-benzyl-ureido)-5-oxo-2-phenyl-2,3-dihydro-5H-benzo[f][1,4]oxazepin-4-yl]-acetylamino}-3-phenyl-propionic acid] was 138 to 140 °C.

The record behind these values is US6506744B1, “Benzazepinone-derivatives” (Hoffmann-La Roche Inc., priority 1999, dated 2003).
